In US11753433B2, “Methods of synthesizing substituted purine compounds” (Epizyme, Inc., priority 2013, dated 2023):

Tests used:
Type in all cases: physicochemical
[1] = Solubility in Simulated Gastric Fluid (SGF) at 37° C.; settings: for Resulting Solid: XRPD
Description: To study if Form A and Form B would perform differently in stomach, the solubilities of Form A and Form B were measured in Simulated Gastric Fluid (SGF, see below for SGF preparation) at 37° C. […] The remaining solids after each time point were subject to XRPD analysis. […] Weigh appropriate amount of hydrochloride (HCl) and sodium chloride (NaCl) into a 1-L flask followed by addition of 1-L deionized water. The mixture was stirred until all solids are dissolved. Check pH value with a pH-meter and adjust the pH to 1.8 with HCl (1N) or NaOH (1N).

[2] = Equilibrium solubility in aqueous media; settings: for solubility at 24 h: 25 °C, thermodynamic from solid; for Remaining Solid: XRPD
Description: Approximately 10 mg of Form B was weighed into a 1-ml glass vial followed by addition of 0.5 ml relevant media. Each sample was continuously stirred using a magnetic stir bar at 25° C. for 24 h. The suspension was then filtered using a nylon membrane with a pore diameter of 0.22 μm. The filtrates were diluted for HPLC analysis and final pH was measured. The solid residue of each sample was collected for XRPD analysis.
The solubilities of Form B in water and five different pH values at 25° C. were determined by HPLC after 24 h equilibration. Solubility data for Form B was obtained across the physiological pH by using buffer solutions from pH 2 to pH 10.
Preparation of pH Buffers • pH 2: 0.01N HCl solution. Dilute 1 ml of 1 N HCl with H2O up to a total volume of 100 ml. Measure the pH and precisely adjust to pH=2.00 using a few microliters of 1N HCl or 1N NaOH. • pH 4: 50 mM Na citrate buffer. Prepare a 50 mM citric acid solution by diluting 10 ml of 1N citric acid with H2O up to a total volume of 200 ml. Slowly add solid NaOH under stirring to increase the pH to 3.8-4.0 and use a few microliters of 1N NaOH for final adjustment to pH 4.00. • pH 6: 50 mM Na citrate buffer. Use the same procedure as the pH 4 buffer and adjust to pH=6.00 • pH 8: 50 mM Na phosphate buffer. Prepare a 50 mM NaH2PO4 solution by dissolving 6.00 g NaH2PO4 in 1 L of H2O and a 50 mM Na2HPO4 solution by dissolving 7.10 g in 1 L of H2O. Mix 10 ml of the NaH2PO4 solution with 140 ml of the Na2HPO4 solution in a beaker. Adjust to pH 8.00 by addition of small amounts of 50 mM NaH2PO4 or Na2HPO4 solution. • pH 10: 50 mM Na carbonate buffer. Prepare a 50 mM carbonate solution by dissolving 840 mg of sodium bicarbonate (NaHCO3) in about 180 ml of H2O. Slowly adjust the pH to 10.0±0.1 by addition of 1N NaOH. Add water to reach the total volume of 200 ml and adjust to pH 10.00 with 1N NaOH.

Solution photostability = assay: Solution photostability
Description: Solution Photostability: Weighed ˜1 mg of Form B and dissolved in 3 solutions at different pHs (0.01 N HCl, 0.01 N NaOH and water). Methanol was added as a co-solvent to dissolve Form B in solutions (i.e., 10% (v/v) methanol in 0.01 N HCl, 20% (v/v) in water and 30% (v/v) in 0.01 N NaOH), the final concentration was 0.1 mg/mL. For each solution, 1 sample and 1 control covered in foil were put into the photo chamber for Vis study (2 vials total for each solution). Measure the concentration and monitor the degradation.

[3] = 0.01N HCl, pH (initial) 2.0, RT, 24 h
[4] = 50 mM Na carbonate buffer, pH (initial) 10.0, RT, 24 h
[5] = 50 mM Na phosphate buffer, pH (initial) 8.0, RT, 24 h
[6] = 50 mM sodium citrate, pH (initial) 4.0, RT, 24 h
[7] = 50 mM sodium citrate, pH (initial) 6.0, RT, 24 h
[8] = 0.01N HCl Dark, Vis Stability (1.2 Mil lux-hours)
[9] = 0.01N HCl Dark, Vis-UV Stability (1.2 Mil lux-hours + 200 Watt-hours/m^2)
[10] = 0.01N HCl Light, Vis Stability (1.2 Mil lux-hours)
[11] = 0.01N HCl Light, Vis-UV Stability (1.2 Mil lux-hours + 200 Watt-hours/m^2)
[12] = 0.01N NaOH Dark, Vis Stability (1.2 Mil lux-hours)
[13] = 0.01N NaOH Dark, Vis-UV Stability (1.2 Mil lux-hours + 200 Watt-hours/m^2)
[14] = 0.01N NaOH Light, Vis Stability (1.2 Mil lux-hours), precipitation observed
[15] = 0.01N NaOH Light, Vis-UV Stability (1.2 Mil lux-hours + 200 Watt-hours/m^2), precipitation observed
[16] = H2O Dark, Vis Stability (1.2 Mil lux-hours)
[17] = H2O Dark, Vis-UV Stability (1.2 Mil lux-hours + 200 Watt-hours/m^2)
[18] = H2O Light, Vis Stability (1.2 Mil lux-hours)
[19] = H2O Light, Vis-UV Stability (1.2 Mil lux-hours + 200 Watt-hours/m^2)

Final pH [1]: 5.3 | Resulting Solid ([1]; 15 min): Type B | Resulting Solid ([1]; 30 min): Type B | Resulting Solid ([1]; 60 min): Type B | solubility at 15 min ([1]; Simulated Gastric Fluid (SGF), pH 1.8, simulated gastric fluid, thermodynamic from solid, 15 min, calculated using free base content): 5400 µg/mL | solubility at 30 min ([1]; Simulated Gastric Fluid (SGF), pH 1.8, simulated gastric fluid, thermodynamic from solid, 30 min, calculated using free base content): 5400 µg/mL | solubility at 60 min ([1]; Simulated Gastric Fluid (SGF), pH 1.8, simulated gastric fluid, thermodynamic from solid, 60 min, calculated using free base content): 5600 µg/mL | solubility at 24 h ([2]; 0.01N HCl solution, pH 2, simulated gastric fluid, 0.01N HCl, pH (initial) 2.0, RT, 24 h): 3400 µg/mL | pH (final) [2, 3]: 5.5 | Remaining Solid [2, 3]: Form B | pH (final) [2, 4]: 10.0 | Remaining Solid [2, 4]: Form B | Solubility ([2]; 50 mM Na carbonate buffer, pH (initial) 10.0, RT, 24 h, LOD 0.1 μg/ml): <LOD^ | pH (final) [2, 5]: 8.0 | Remaining Solid [2, 5]: Form B | Solubility ([2]; 50 mM Na phosphate buffer, pH (initial) 8.0, RT, 24 h, LOD 0.1 μg/ml): <LOD^§ | solubility at 24 h ([2]; 50 mM sodium citrate buffer, pH 4, aqueous buffer, 50 mM sodium citrate, pH (initial) 4.0, RT, 24 h): 9800 µg/mL | solubility at 24 h ([2]; 50 mM sodium citrate buffer, pH 6, aqueous buffer, 50 mM sodium citrate, pH (initial) 6.0, RT, 24 h): 80 µg/mL | pH (final) [2, 6]: 5.4 | Remaining Solid [2, 6]: Form B | Solubility ([2]; 50 mM sodium citrate, pH (initial) 4.0, RT, 24 h, trihydrate): 9700 µg/mL | pH (final) [2, 7]: 6.0 | Remaining Solid [2, 7]: Form B | pH (final) ([2]; Water (unbuffered), RT, 24 h): 5.6 | Remaining Solid ([2]; Water (unbuffered), RT, 24 h): Form B | solubility at 24 h ([2]; unbuffered water, water, RT): 1.2 µg/mL | solubility at 24 h ([2]; unbuffered water, water, Water (unbuffered), RT, 24 h): 1.2 µg/mL | % area (Solution photostability; [8]): 99.4% | % claim (Solution photostability; [8]): 100.0% | Final pH (Solution photostability; [8]): 2.1 | % area (Solution photostability; [9]): 99.9% | % claim (Solution photostability; [9]): 100.0% | Final pH (Solution photostability; [9]): 2.1 | % area (Solution photostability; [10]): 98.5% | % claim (Solution photostability; [10]): 98.8% | Final pH (Solution photostability; [10]): 2.1 | % area (Solution photostability; [11]): 99.9% | % claim (Solution photostability; [11]): 99.9% | Final pH (Solution photostability; [11]): 2.1 | % area (Solution photostability; [12]): 99.7% | % claim (Solution photostability; [12]): 100.0% | Final pH (Solution photostability; [12]): 11.6 | % area (Solution photostability; [13]): 100.0% | % claim (Solution photostability; [13]): 100.0% | Final pH (Solution photostability; [13]): 11.7 | Final pH (Solution photostability; 0.01N NaOH Light, Vis Stability (1.2 Mil lux-hours)): 11.7 | % area (Solution photostability; [14]): 99.6% | % claim (Solution photostability; [14]): 44.5% | Final pH (Solution photostability; 0.01N NaOH Light, Vis-UV Stability (1.2 Mil lux-hours + 200 Watt-hours/m^2)): 11.7 | % area (Solution photostability; [15]): 99.3% | % claim (Solution photostability; [15]): 66.3% | % area (Solution photostability; [16]): 100.0% | % claim (Solution photostability; [16]): 100.0% | Final pH (Solution photostability; [16]): 7.7 | % area (Solution photostability; [17]): 100.0% | % claim (Solution photostability; [17]): 100.0% | Final pH (Solution photostability; [17]): 8.1 | % area (Solution photostability; [18]): 99.6% | % claim (Solution photostability; [18]): 98.5% | Final pH (Solution photostability; [18]): 7.3 | % area (Solution photostability; [19]): 99.3% | % claim (Solution photostability; [19]): 94.7% | Final pH (Solution photostability; [19]): 7.3 | observation in solution photostability study (Solution photostability; all solutions in 0.01N NaOH): Precipitation was observed | solution photostability (in words) (Solution photostability; in water and 0.01N HCl solution, UV/Vis exposure): stable upon exposure to UV/Vis
Compound: CC(C)N(C[C@H]1O[C@@H](n2cnc3c(N)ncnc32)[C@H](O)[C@@H]1O)[C@H]1C[C@@H](CCc2nc3cc(C(C)(C)C)ccc3[nH]2)C1 [Form B, (2R,3R,4S,5R)-2-(6-amino-9H-purin-9-yl)-5-((((1r,3S)-3-(2-(5-(tert-butyl)-1H-benzo[d]imidazol-2-yl)ethyl)cyclobutyl)(isopropyl)amino)methyl)tetrahydrofuran-3,4-diol trihydrate]
